In US6064908A, “Device for ionophoresis comprising at least a membrane electrode assembly, for the transcutaneous administration of active principles to a subject” (Elf Aquitaine, priority 1996, dated 2000):

Tests used:
[1] = administration of pentasaccharide sodium salt in mini pigs by iontophoresis at set current density; antifactor Xa plasma levels; type: in vivo, mini pigs of the YUCATAN strain
Procedure: Administration in mini pigs of pentasaccharide sodium salt by iontophoresis at a set current density.
Specialists consider mini pigs of the YUCATAN strain to be an excellent animal model for studying the administration in man of medicaments by iontophoresis. This is because the skin structure of this animal is very similar to that of human skin.
The following tests were carried out on the aforementioned mini pig with the aim of comparing the administration by iontophoresis of the sodium salt of the pentasaccharide used in Example 1 with administration by subcutaneous injection.
For these tests, pairs of adhesive electrode assemblies were formed, each pair comprising a donor electrode assembly, equipped with a reversible negative electrode (active electrode) and containing the pentasaccharide to be administered, and a passive electrode assembly formed by a positive electrode (back electrode) in contact with a second reservoir element containing an arbitrary (i.e. indifferent) electrolyte.
In the donor electrode assembly according to the invention, as well as in the reference donor assembly, the electrode 6 made of chloridized silver contained a quantity of silver chloride equivalent to 1.8 mAh/cm^2, thus allowing the electrode to sustain the quantity of electricity flowing through the electrodes over the duration of the iontophoretic treatment, namely 0.88 mAh/cm^2.
The primary electrolyte medium constituting the primary reservoir element 11 of the donor electrode assembly according to the invention, as well as the conducting, absorbent, porous material forming the reservoir element 11 of the reference electrode assembly, each consisted of a sheet of blotting paper made of cellulose fibres supplemented by polypropylene fibrils, having a surface area of 20 cm^2 and a thickness of 0.5 mm and being impregnated, to a level of 50 mg/cm^2, with an aqueous solution containing 2% by weight of pentasaccharide. Each reservoir element 11 contained in total 1 g of solution, i.e. 20 mg of pentasaccharide over 20 cm^2 of active surface (1 mg/cm^2). 20 mg of pentasaccharide were therefore employed in total per animal.
The selectively permeable membrane separating the recesses 2 and 15 of the donor electrode assembly according to the invention, that is to say separating the primary 11 and secondary 20 reservoir elements of the said electrode assembly, consisted of a 50 μm thick film of the polyether block amide PEBAX MV 1041 defined in Example 1.
In each passive electrode assembly, the positive electrode (back electrode) made of chloridized silver contained a quantity of silver chloride equivalent to 0.1 mAh/cm^2 and the reservoir element associated with this electrode consisted of a sheet of blotting paper made of cellulose fibres supplemented by polypropylene fibrils having a surface area of 20 cm^2 and a thickness of 0.5 mm and was impregnated with an aqueous solution of NaCl to contain 6% by weight of this salt.
An electric signal generator which could be connected to the electrodes of each pair of electrode assemblies, made it possible to deliver a continuous electric signal of controlled intensity between the said electrodes.
Five days before each test, the animals were catheterized in the two jugulars, as is well known for any experimentation in medicament administration, in order to make it possible to take regular blood samples intended for assaying the antifactor Xa activities and thereby to evaluate the quantities of active principle that pass through the skin to enter the circulatory system and therefore to check the effectiveness of the iontophoretic treatment.
The animals, fasted from the day before the experiments, were placed in specialized hammocks. […]

factor Xa = experiment: antifactor Xa activity of the active principle; type: biochemical; details: sodium salt
Procedure: The assay of the pentasaccharide in the receiver compartment was based on investigating its antifactor Xa activity. The assay was carried out either directly on the medium sample from the receiver compartment or after dilution, using a ROTACHROM HEPARIN 8® assay kit, with a complementary buffer for the assay instrument and the bovine antithrombin III, these various elements being supplied by the company STAGO, using a HITACHI 717 assay instrument. The calibration curve was established using a "Golden Standard" pentasaccharide solution to which an antifactor Xa activity equal to 13 units per ml was assigned.

Bioavailability ([1]; Test 2a: passive, no current): 0%
plasma level, Antifactor Xa ([1]; Test 2a: passive, no current, 0 h): 0 units/ml
plasma level, Antifactor Xa ([1]; Test 2a: passive, no current, 0.25 h): 0 units/ml
plasma level, Antifactor Xa ([1]; Test 2a: passive, no current, 0.50 h): 0 units/ml
plasma level, Antifactor Xa ([1]; Test 2a: passive, no current, 1.00 h): 0 units/ml
plasma level, Antifactor Xa ([1]; Test 2a: passive, no current, 2.00 h): 0 units/ml
plasma level, Antifactor Xa ([1]; Test 2a: passive, no current, 4.00 h): 0 units/ml
plasma level, Antifactor Xa ([1]; Test 2a: passive, no current, 6.00 h): 0 units/ml
plasma level, Antifactor Xa ([1]; Test 2a: passive, no current, 8.00 h): 0 units/ml
plasma level, Antifactor Xa ([1]; Test 2a: passive, no current, 10.00 h): 0 units/ml
plasma level, Antifactor Xa ([1]; Test 2a: passive, no current, 16.00 h): 0 units/ml
plasma level, Antifactor Xa ([1]; Test 2a: passive, no current, 24.00 h): 0 units/ml
plasma level, Antifactor Xa ([1]; Test 2a: passive, no current, 30.00 h): 0 units/ml
plasma levels (antifactor Xa), invention vs reference iontophoresis ([1]; Test 2b vs Test 2c): more than three times higher
plasma level, Antifactor Xa ([1]; Test 2b: iontophoresis, PEBAX MV 1041 membrane, 20 mg, 8 hours): 1 units/ml
plasma level, Antifactor Xa ([1]; Test 2b: iontophoresis, PEBAX MV 1041 membrane, 20 mg, 8 hours, 0 h): 0 units/ml
plasma level, Antifactor Xa ([1]; Test 2b: iontophoresis, PEBAX MV 1041 membrane, 20 mg, 8 hours, 0.25 h): 0.07 units/ml
plasma level, Antifactor Xa ([1]; Test 2b: iontophoresis, PEBAX MV 1041 membrane, 20 mg, 8 hours, 0.50 h): 0.14 units/ml
plasma level, Antifactor Xa ([1]; Test 2b: iontophoresis, PEBAX MV 1041 membrane, 20 mg, 8 hours, 1.00 h): 0.36 units/ml
plasma level, Antifactor Xa ([1]; Test 2b: iontophoresis, PEBAX MV 1041 membrane, 20 mg, 8 hours, 2.00 h): 0.81 units/ml
plasma level, Antifactor Xa ([1]; Test 2b: iontophoresis, PEBAX MV 1041 membrane, 20 mg, 8 hours, 4.00 h): 1.3 units/ml
plasma level, Antifactor Xa ([1]; Test 2b: iontophoresis, PEBAX MV 1041 membrane, 20 mg, 8 hours, 6.00 h): 0.98 units/ml
plasma level, Antifactor Xa ([1]; Test 2b: iontophoresis, PEBAX MV 1041 membrane, 20 mg, 8 hours, 10.00 h): 0.79 units/ml
plasma level, Antifactor Xa ([1]; Test 2b: iontophoresis, PEBAX MV 1041 membrane, 20 mg, 8 hours, 16.00 h): 0.38 units/ml
plasma level, Antifactor Xa ([1]; Test 2b: iontophoresis, PEBAX MV 1041 membrane, 20 mg, 8 hours, 24.00 h): 0.12 units/ml
plasma level, Antifactor Xa ([1]; Test 2b: iontophoresis, PEBAX MV 1041 membrane, 20 mg, 8 hours, 30.00 h): 0.04 units/ml
plasma level, Antifactor Xa ([1]; Test 2b: iontophoresis, PEBAX MV 1041 membrane, 20 mg, 8 hours, […]): 0.61 units/ml
plasma level, Antifactor Xa ([1]; Test 2c: reference iontophoresis, no membrane, 20 mg, 8 hours): 0.35 units/ml
plasma level, Antifactor Xa ([1]; Test 2c: reference iontophoresis, no membrane, 20 mg, 8 hours, 0 h): 0 units/ml
plasma level, Antifactor Xa ([1]; Test 2c: reference iontophoresis, no membrane, 20 mg, 8 hours, 0.25 h): 0.03 units/ml
plasma level, Antifactor Xa ([1]; Test 2c: reference iontophoresis, no membrane, 20 mg, 8 hours, 0.50 h): 0.05 units/ml
plasma level, Antifactor Xa ([1]; Test 2c: reference iontophoresis, no membrane, 20 mg, 8 hours, 1.00 h): 0.09 units/ml
plasma level, Antifactor Xa ([1]; Test 2c: reference iontophoresis, no membrane, 20 mg, 8 hours, 2.00 h): 0.13 units/ml
plasma level, Antifactor Xa ([1]; Test 2c: reference iontophoresis, no membrane, 20 mg, 8 hours, 4.00 h): 0.27 units/ml
plasma level, Antifactor Xa ([1]; Test 2c: reference iontophoresis, no membrane, 20 mg, 8 hours, 6.00 h): 0.29 units/ml
plasma level, Antifactor Xa ([1]; Test 2c: reference iontophoresis, no membrane, 20 mg, 8 hours, 10.00 h): 0.34 units/ml
plasma level, Antifactor Xa ([1]; Test 2c: reference iontophoresis, no membrane, 20 mg, 8 hours, 16.00 h): 0.11 units/ml
plasma level, Antifactor Xa ([1]; Test 2c: reference iontophoresis, no membrane, 20 mg, 8 hours, 24.00 h): 0.08 units/ml
plasma level, Antifactor Xa ([1]; Test 2c: reference iontophoresis, no membrane, 20 mg, 8 hours, 30.00 h): 0.01 units/ml
plasma level, Antifactor Xa ([1]; Test 2c: reference iontophoresis, no membrane, 20 mg, 8 hours, […]): 0.14 units/ml
plasma level, Antifactor Xa ([1]; Test 2d: subcutaneous injection 0.200 mg/kg, 0 h): 0 units/ml
plasma level, Antifactor Xa ([1]; Test 2d: subcutaneous injection 0.200 mg/kg, 0.25 h): 0.11 units/ml
plasma level, Antifactor Xa ([1]; Test 2d: subcutaneous injection 0.200 mg/kg, 0.50 h): 0.13 units/ml
plasma level, Antifactor Xa ([1]; Test 2d: subcutaneous injection 0.200 mg/kg, 1.00 h): 0.17 units/ml
plasma level, Antifactor Xa ([1]; Test 2d: subcutaneous injection 0.200 mg/kg, 2.00 h): 0.22 units/ml
plasma level, Antifactor Xa ([1]; Test 2d: subcutaneous injection 0.200 mg/kg, 4.00 h): 0.26 units/ml
plasma level, Antifactor Xa ([1]; Test 2d: subcutaneous injection 0.200 mg/kg, 6.00 h): 0.24 units/ml
plasma level, Antifactor Xa ([1]; Test 2d: subcutaneous injection 0.200 mg/kg, 8.00 h): 0.15 units/ml
plasma level, Antifactor Xa ([1]; Test 2d: subcutaneous injection 0.200 mg/kg, 10.00 h): 0.12 units/ml
plasma level, Antifactor Xa ([1]; Test 2d: subcutaneous injection 0.200 mg/kg, 16.00 h): 0.06 units/ml
plasma level, Antifactor Xa ([1]; Test 2d: subcutaneous injection 0.200 mg/kg, 24.00 h): 0.00 units/ml
plasma level, Antifactor Xa ([1]; Test 2d: subcutaneous injection 0.200 mg/kg, 30.00 h): 0.00 units/ml
plasma level, Antifactor Xa ([1]; Test 2d: subcutaneous injection 0.200 mg/kg, […]): 0.06 units/ml
SMILES: O=C(O)C1OC(OC2C(COS(=O)(=O)O)OC(OC3C(C(=O)O)OC(OC4C(COS(=O)(=O)O)OC(O)C(NS(=O)(=O)O)C4O)C(OS(=O)(=O)O)C3O)C(NS(=O)(=O)O)C2OS(=O)(=O)O)C(O)C(O)C1OC1OC(COS(=O)(=O)O)C(O)C(O)C1NS(=O)(=O)O (stereo not shown) [pentasaccharide]
bioavailability for the in-vivo tests vs in-vitro utilization factors ([1]; Example 2 vs Example 1): higher than the utilization factors which were obtained for the in-vitro tests
antifactor Xa activity (factor Xa): 0.65 "Golden Standard" units per microgram
